Values after ≈ are worked out from the molar mass of the structure shown. Where two headings read alike, the source gives them in different places. Non-standard residues stand in square brackets, D forms with d. Residues, ends and D or L forms follow the SMILES beside them. Abu = CC[C@H](N)C(=O)O
Key:
[1] = test system: Fusarium culmorum (IMI 180420); experiment: Antifungal growth inhibition microplate assay (photospectrometry); type: cell-based; details: for IC50 / MIC / F CULMORUM IC50 / F CULMORUM MIC / F CULMORUM IC: ½ PDB; for F CULMORUM IC: Table 6 / FIG. 8: Rs-AFP1-based 9-mer split peptides; for antifungal activity (in words): overlapping 13- to 20-mer MPS peptides Ile26-Phe49, Cys replaced by alpha-aminobutyric acid, FIGS. 10-13
Protocol: (§1) The following fungal strains were used: Alternaria brassicicola (MUCL 20297), Ascophyta pisi (MUCL 30164), Botrytis cinerea (MUCL 30158), Fusarium culmorum (IMI 180420) and Verticillium dahliae (MUCL 19210).
(§2) Fungi were grown on six cereal agar plates at room temperature and under white fluorescent light except for F culmorum and V dahliae which were grown in the dark. The duration of the spore harvest varied between 10 and 25 days depending on the strain. Spores were collected as follows. Five to ten ml of sterile milli-Q water was poured into each dish and the surface of the agar was rubbed with a sterile spatula to obtain a suspension containing mycelium and spores. This suspension was filtered through a sterile glasswool-plugged funnel and the filtrate containing the spores was collected in a sterile polypropylene centrifuge tube. The A brassicicola spores were suspended in sterile 0.1 Tween 20 (Merk, 822184) due to their hydrophobic nature. The spore suspensions were then washed twice by centrifugation at 2,400×g for 15 minutes and resuspended in a small volume of steril milli-Q water. The spore density was determined in a counting chamber and then adjusted to 4×10^7 spores per ml. Aliquots of the spore suspension were transferred to sterile microtubes and an equal volume of sterile 50% glycerol (Merck, 4091) was added to each tube so that a final spore suspension of 2×10^7 spores per ml in 25% glycerol was obtained. After careful mixing of the stock, the spore suspension was transferred in 100 μl aliquots to sterile microtubes and stored at −80° C.
(§3) Antifungal activity was measured by photospectrometry as described by Broekaert et al, (1990, FEMS Microbiol Lett, 69:55-60). Tests were performed by adding 20 μl of test solution and 80 μl of a fungal spore suspension (2×10^4 spores/ml) per well in a sterile flat-bottom 96-well microtiterplate. The spore suspension was prepared by diluting the stock spore suspension ([…] in 25% glycerol) 1:1000 in half-strength potato dextrose broth. A positive growth control consisting of eight wells containing 20 μl of sterile milli-Q water and 80 μl of the fungal spore suspension was included in each test. The microtiterplates were incubated (with the lid on) in an aerated place at room temperature and under conditions of darkness for all test organisms.
(§4) After 30 minutes of incubation (when the spores are settled on the well bottom) the optical density was measured in a microplate reader (Bio Rad 3550-UV) at 595 nm. Incubation of the microtiterplates continued until the optical density of the control microculture was between 0.250 and 0.500, which took approximately 72 hours (96 hours for V dahliae). Percentage of growth inhibition (% GI) was estimated as 100 times the ratio of the corrected absorbance of the control microculture minus the corrected absorbance of the test microculture over the corrected absorbance of the control microculture at 595 nm. The corrected absorbance values equal the absorbance at 595 nm of the culture measured after 72 or 96 hours minus the absorbance at 595 nm measured after 30 minutes.
(§5) % GI=[(Acontrol−Atest/Acontrol]×100
(§6) where Acontrol=(A72/96h−A30min)control
(§7) The IC50 value is defined as the concentration that gives a 50% growth inhibition after 72 or 96 hours of incubation. The minimum inhibitory concentration (MIC) corresponds to the minimum concentration that gives 100% growth inhibition after 72 or 96 hours incubation.

[2] = test system: Ascophyta pisi (MUCL 30164); type: cell-based; details: for A PISI IC: the source numbers peptides by N-terminal amino acid
Protocol: as §1, §2, §3, §4, §5, §6, §7

[3] = Table 4 / FIG. 6: Rs-AFP2-based 12-mer split peptides, the source numbers peptides by N-terminal amino acid
[4] = Table 4: Rs-AFP2-based 12-mer split peptides, triplicate
[5] = Table 7 / FIG. 8: Rs-AFP1-based 12-mer split peptides, the source numbers peptides by N-terminal amino acid
[6] = Table 7: Rs-AFP1-based 12-mer split peptides
[7] = Table 7: Rs-AFP1-based 12-mer split peptides, ½ PDB
[8] = Table 3 / FIG. 6: Rs-AFP2-based 9-mer split peptides, the source numbers peptides by N-terminal amino acid
[9] = Table 3: Rs-AFP2-based 9-mer split peptides, duplicate
[10] = the source numbers peptides by N-terminal amino acid
[11] = Table 6: Rs-AFP1-based 9-mer split peptides
[12] = Table 6: Rs-AFP1-based 9-mer split peptides, ½ PDB

114 (CIRLEKARHGSC; listed as Raphanus sativus) [compound 114]
IC50 [1, 3]: 74 µg/mL | MIC [1, 4]: 100 µg/mL | F CULMORUM IC50 [1, 5]: 328 µg/mL | F CULMORUM MIC [1, 6]: 400 µg/mL | A PISI IC50 [2, 7]: 318 µg/mL | A PISI MIC [2, 7]: >400 µg/mL

CC[C@H](C)[C@H](NC(=O)[C@H](CS)NC(=O)[C@H](CCCCN)NC(C)=O)C(=O)N[C@@H](CS)C(=O)N[C@@H](Cc1ccc(O)cc1)C(=O)N[C@@H](Cc1ccccc1)C(N)=O [compound 44] (Ac-KCICYF-NH2)
F CULMORUM IC50 ([1]; Table 5 / FIG. 8: Rs-AFP1-based 6-mer split peptides): 376 µg/mL | F CULMORUM MIC ([1]; Table 5: Rs-AFP1-based 6-mer split peptides): >400 tg/ml | A PISI IC50 [2]: 400 µg/mL | A PISI MIC [2]: >400 µg/mL

CC[C@H](C)[C@H](NC(=O)[C@H](CS)NC(=O)[C@H](CCCCN)NC(=O)[C@H](Cc1c[nH]cn1)NC(=O)[C@H](C)NC(=O)[C@@H]1CCCN1C(=O)[C@H](Cc1ccccc1)NC(=O)[C@@H](NC(C)=O)C(C)C)C(=O)N[C@@H](CS)C(N)=O [compound 85] (Ac-VFPAHKCIC-NH2)
IC50 [1, 8]: 121 µg/mL (≈ 114 µM) | MIC [1, 9]: 200 µg/mL (≈ 189 µM) | F CULMORUM IC [1, 10]: 121 µg/mL | F CULMORUM MIC [1, 11]: 200 µg/mL | A PISI MIC [2, 12]: 400 µg/mL | A PISI IC [2, 12]: 184 µg/mL

CC[C@H](C)[C@H](NC(=O)[C@H](CS)NC(=O)[C@H](CCCCN)NC(=O)[C@H](Cc1c[nH]cn1)NC(=O)[C@H](C)NC(=O)[C@@H]1CCCN1C(=O)[C@H](Cc1ccccc1)NC(C)=O)C(=O)N[C@@H](CS)C(=O)N[C@@H](Cc1ccc(O)cc1)C(N)=O [compound 86] (Ac-FPAHKCICY-NH2)
IC50 [1, 8]: 144 µg/mL (≈ 128 µM) | MIC [1, 9]: 400 µg/mL (≈ 356 µM) | F CULMORUM IC [1, 10]: 196 µg/mL | F CULMORUM MIC [1, 11]: 250 µg/mL | A PISI MIC [2, 12]: 200 µg/mL | A PISI IC [2, 12]: 80 µg/mL

CC[C@H](C)[C@H](NC(=O)[C@H](CS)NC(=O)[C@H](CCCCN)NC(=O)[C@H](Cc1c[nH]cn1)NC(=O)[C@H](C)NC(=O)[C@@H]1CCCN1C(C)=O)C(=O)N[C@@H](CS)C(=O)N[C@@H](Cc1ccc(O)cc1)C(=O)N[C@@H](Cc1ccccc1)C(N)=O [compound 87] (Ac-PAHKCICYF-NH2)
IC50 [1, 8]: 39 µg/mL (≈ 34.7 µM) | MIC [1, 9]: 50 µg/mL (≈ 44.5 µM) | F CULMORUM IC [1, 10]: 28 µg/mL | F CULMORUM MIC [1, 11]: 37.5 µg/mL | A PISI MIC [2, 12]: 50 µg/mL | A PISI IC [2, 12]: 31 µg/mL

CC[C@H](C)[C@H](NC(=O)[C@H](CS)NC(=O)[C@H](CCCCN)NC(=O)[C@H](Cc1c[nH]cn1)NC(=O)[C@H](C)NC(C)=O)C(=O)N[C@@H](CS)C(=O)N[C@@H](Cc1ccc(O)cc1)C(=O)N[C@@H](Cc1ccccc1)C(=O)N1CCC[C@H]1C(N)=O [compound 88] (Ac-AHKCICYFP-NH2)
IC50 [1, 8]: 35 µg/mL (≈ 31.2 µM) | MIC [1, 9]: 50 µg/mL (≈ 44.5 µM) | F CULMORUM IC [1, 10]: 21 µg/mL | F CULMORUM MIC [1, 11]: 37.5 µg/mL | A PISI MIC [2, 12]: 25 µg/mL | A PISI IC [2, 12]: 18 µg/mL

CC[C@H](C)[C@H](NC(=O)[C@H](CS)NC(=O)[C@H](CCCCN)NC(=O)[C@H](Cc1c[nH]cn1)NC(C)=O)C(=O)N[C@@H](CS)C(=O)N[C@@H](Cc1ccc(O)cc1)C(=O)N[C@@H](Cc1ccccc1)C(=O)N1CCC[C@H]1C(=O)N[C@@H](CS)C(N)=O [compound 89] (Ac-HKCICYFPC-NH2)
F CULMORUM IC [1, 10]: 233 µg/mL | A PISI IC [2, 12]: 70 µg/mL

CC(=O)NCC(=O)N[C@@H](CO)C(=O)N[C@@H](CS)C(=O)N[C@@H](CC(N)=O)C(=O)N[C@@H](Cc1ccc(O)cc1)C(=O)N[C@H](C(=O)N[C@@H](Cc1ccccc1)C(=O)N1CCC[C@H]1C(=O)N[C@@H](C)C(=O)N[C@@H](Cc1c[nH]cn1)C(=O)N[C@@H](CCCCN)C(=O)N[C@@H](CS)C(N)=O)C(C)C [compound 123] (Ac-GSCNYVFPAHKC-NH2)
IC50 [1, 3]: 280 µg/mL (≈ 205 µM) | MIC [1, 4]: 300 µg/mL (≈ 220 µM) | F CULMORUM IC50 [1, 5]: 266 µg/mL | F CULMORUM MIC [1, 6]: 300 µg/mL | A PISI IC50 [2, 7]: 349 µg/mL | A PISI MIC [2, 7]: >400 µg/mL

CC[C@H](C)[C@H](NC(=O)[C@H](CS)NC(=O)[C@H](CCCCN)NC(=O)[C@H](Cc1c[nH]cn1)NC(=O)[C@H](C)NC(=O)[C@@H]1CCCN1C(=O)[C@H](Cc1ccccc1)NC(=O)[C@@H](NC(=O)[C@H](Cc1ccc(O)cc1)NC(=O)[C@H](CC(N)=O)NC(=O)[C@H](CS)NC(=O)[C@H](CO)NC(C)=O)C(C)C)C(N)=O [compound 124] (Ac-SCNYVFPAHKCI-NH2)
IC50 [1, 3]: 135 µg/mL (≈ 94.9 µM) | MIC [1, 4]: 200 µg/mL (≈ 141 µM) | F CULMORUM IC50 [1, 5]: 213 µg/mL | F CULMORUM MIC [1, 6]: 300 µg/mL | A PISI IC50 [2, 7]: 318 µg/mL | A PISI MIC [2, 7]: >400 µg/mL

CC[C@H](C)[C@H](NC(=O)[C@H](CS)NC(=O)[C@H](CCCCN)NC(=O)[C@H](Cc1c[nH]cn1)NC(=O)[C@H](C)NC(=O)[C@@H]1CCCN1C(=O)[C@H](Cc1ccccc1)NC(=O)[C@@H](NC(=O)[C@H](Cc1ccc(O)cc1)NC(=O)[C@H](CC(N)=O)NC(C)=O)C(C)C)C(=O)N[C@@H](CS)C(=O)N[C@@H](Cc1ccc(O)cc1)C(N)=O [compound 126] (Ac-NYVFPAHKCICY-NH2)
IC50 [1, 3]: 201 µg/mL (≈ 134 µM) | MIC [1, 4]: 300 µg/mL (≈ 200 µM) | F CULMORUM IC50 [1, 5]: 189 µg/mL | F CULMORUM MIC [1, 6]: 300 µg/mL | A PISI IC50 [2, 7]: 298 µg/mL | A PISI MIC [2, 7]: 400 µg/mL

CC[C@H](C)[C@H](NC(=O)[C@H](CS)NC(=O)[C@H](CCCCN)NC(=O)[C@H](Cc1c[nH]cn1)NC(=O)[C@H](C)NC(=O)[C@@H]1CCCN1C(=O)[C@H](Cc1ccccc1)NC(=O)[C@@H](NC(=O)[C@H](Cc1ccc(O)cc1)NC(C)=O)C(C)C)C(=O)N[C@@H](CS)C(=O)N[C@@H](Cc1ccc(O)cc1)C(=O)N[C@@H](Cc1ccccc1)C(N)=O [compound 127] (Ac-YVFPAHKCICYF-NH2)
F CULMORUM IC50 [1, 5]: 354 µg/mL | F CULMORUM MIC [1, 6]: >400 µg/mL | A PISI IC50 [2, 7]: 302 µg/mL | A PISI MIC [2, 7]: 400 µg/mL

Ac-NYVFPAHKC-NH2 [compound 83]
IC50 [1, 8]: 175 µg/mL | MIC [1, 9]: 250 µg/mL | F CULMORUM IC [1, 10]: 330 µg/mL | F CULMORUM MIC [1, 11]: 400 µg/mL

Ac-QCIRLEKAR-NH2 [compound 70]
IC50 [1, 8]: 78 µg/mL | MIC [1, 9]: 100 µg/mL

Ac-YVFPAHKCI-NH2 [compound 84]
IC50 [1, 8]: 175 µg/mL | MIC [1, 9]: 400 µg/mL | F CULMORUM IC [1, 10]: 145 µg/mL | F CULMORUM MIC [1, 11]: 250 µg/mL

HGSBNYVFPAHKBIBY (Ac-HGS[Abu]NYVFPAHK[Abu]I[Abu]Y-NH2; listed as Raphanus sativus) [SEQ ID NO: 99]
antifungal activity (in words) [1]: nonactive

RHGSBNYVFPAHKBIBY (Ac-RHGS[Abu]NYVFPAHK[Abu]I[Abu]Y-NH2; listed as Raphanus sativus) [SEQ ID NO: 107]
antifungal activity (in words) [1]: very active
